From US11969497B2, “Method for producing an Entada seed extract enriched with metabolites of interest, extract produced by such a method, and cosmetic and dermocosmetic applications of such an extract” (EXSYMOL, priority 2018, dated 2024)

Columns and labels:
MMP-1 metalloproteinase = assay: MMP-1 secretion by primary human fibroblasts (NHDF) exposed to blue light, ELISA (test 6); assay type: cell-based; details: 5 mM; blue light 30 J/cm^2; non-irradiated 100, irradiated control 214
Experimental: Primary human fibroblasts (“NHDF”) were isolated from a mammoplasty from a patient. The NHDFs were cultured in DMEM medium supplemented with 4.5 g/l of glucose and 10% of FCS. They were maintained in an atmosphere at 37° C. and 10% CO2. On D-3, the fibroblasts were inoculated in 24-well plates at a rate of 15,000 cells/cm^2. On D-1, the NHDFs were incubated at 37° C. and 10% CO2 for 24 h with the extract of Entada seeds according to the invention. […] After irradiation, the cells were reincubated at 37° C. and 10% CO2 for an additional 24 h and the culture supernatants were harvested in order to perform an ELISA assay of the MMP-1 metalloproteinase (Abcam kit, ab100603). The results obtained were normalized with respect to the quantity of cells per condition and subjected to statistical analysis in triplicate.

[1] = ABTS antioxidant test (test 2a); details: absorbance 734 nm after 6 minutes
Experimental: (§1) This solution was then was diluted in water to obtain, under the test conditions, an absorbance of 0.5 at 734 nm. In each well of a 96-well microplate, were placed 100 μL of a solution of the extract according to the invention to be evaluated and 150 μL of oxidized ABTS solution. After 6 minutes, the absorbance was measured at 734 nm.

[2] = DPPH antioxidant test (test 2b); details: absorbance 517 nm after 30 minutes
Experimental: as §1
Experimentally by the DPPH test in each well of a 96 well micro plate, were placed 100 μL of a solution of the active to be evaluated and 100 μL of an ethanol solution of 1,1-diphenyl-2-picrylhydrazyle (DPPH-Aldrich D913-2) at 200 μM. After 30 minutes, the absorbance was measured at 517 nm.

[3] = Photo-induced isomerization of trans-urocanic acid under UV-B (test 1a/1b), HPLC assay; details: test 1b
Experimental: Two series of experiments were performed, the first with a fixed dose UV-B radiation of 300 mJ/cm^2 (test 1a), the second with a varying dose of UV-B radiation (test 1b) and using as a control a synthetic replica of entadamide A, namely the compound “(E)-N-(2-hydroxyethyl)-3-[…]” which is the subject of patent application EP 3103436.
Experimentally, the test was carried out in a 0.01 M citrate buffer of pH 5.5, the slightly acidic pH being more in relation to the acidity of the superficial skin layers in which the trans-urocanic acid marker is located. Thus, the solutions to be irradiated (20 mL), namely the control with or without the extract according to the invention, were placed in glass Petri dishes, uncovered, then subjected at room temperature to UV-B irradiation using a UV-B oven (LabOSI®). Aliquots (500 μL) were then sampled in HPLC vials to be immediately stored protected from light and at low temperature (+4/+8° C.), prior to analysis by HPLC assay. Chromatographic profiles were thus obtained, and the residual amount of trans-urocanic acid was determined.
Experimentally concerning test 1b, the study was carried out in an almost identical manner to test 1a above, with first checking that under the experimental conditions defined, trans-urocanic acid generated a significant amount of cis-urocanic acid which can be measured by HPLC analysis. […]

CC(=O)N[C@@H](CS)C(=O)O [N-acetyl-L-cysteine (NAC), N-acetyl-L-cysteine]
% of MMP-1 secreted (MMP-1 metalloproteinase): 61%

O=C1O[C@H]([C@@H](O)CO)C(O)=C1O [ascorbic acid]
EC50 [1]: 24 µM | EC50 [2]: 25 µM

O=C(O)Cc1cc(O)ccc1O[C@@H]1O[C@H](CO)[C@@H](O)[C@H](O)[C@H]1O [phaseoloidin, 2-O-β-D-glucopyranoside derivative of homogentisic acid]
contribution of non-hydrolyzed phaseoloidin in the photoprotective activity of the extract against UV-B radiation [3]: > 25% | EC50 [1]: 8.3 µM | EC50 [2]: 540 µM
